The results in this text go back to EP1893207B1, “USE OF SUBSTITUTED PIPERAZINE DERIVATIVES AND MORPHOLINE DERIVATIVES” (Merck Patent GmbH, priority 2005, dated 2006).

The target of one assay is Pilz-tyrosinase. In words: Tyrosinase assay (inhibition of the enzyme tyrosinase, L-DOPA substrate, optical density at 450 nm). Particulars: Tyrosinase 10 U, L-DOPA 4 mM, 1 h 37°C. Type of assay: biochemical. The procedure: Die Wirkung der Verbindungen nach Formeln Ia bis IIp als Hautaufheller wird geprüft durch ihre Fähigkeit das Enzym Tyrosinase zu hemmen und damit die Melanin-Synthese zu unterbinden. Um die hemmende Wirkung der Verbindungen der Formeln Ia bis IIp gegenüber Tyrosinase zu zeigen wurden als Substrate Pilz-tyrosinase und L-Tyrosin oder L-DOPA verwendet und mit der Referenz-Verbindung verglichen.
Die Verbindungen Ia bis IIp und Tyrosinase (10 U) werden 10 Min. in Eis vorgekühlt und L-DOPA (4 mM) zugefügt und für 1 h auf 37°C gehalten. Es wird die optische Dichte jedes experimentell ermittelten Punktes bei 450 nm gegenüber der entsprechenden Referenz ohne Enzym gemessen. Kojicsäure wird als Tyrosinase-Referenz-Inhibitor benutzt. Die Versuchsergebnisse sind in der folgenden Tabelle 1 dargestellt, ausgedrückt durch den IC 50-Wert (d.h. die Konzentration der jeweiligen Versuchssubstanz bei der die Tyrosinase-Aktivität um 50% blockiert ist). Tab. 1 Tyrosinase-Versuchsergebnisse

For assay [1], the system named is normale menschliche Melanocyten. Put plainly: Melanin assay (melanin content of human melanocyte cultures, optical density at 405 nm). The format is cell-based. Particulars: 240 h incubation; for % Kontrolle normiert*: melanin content normalised; for % Kontrolle: melanin content. From the text:
Das Potential der Verbindungen nach Formeln Ia bis IIp als Hautaufheller-Wirkstoff wurde außerdem durch den Melanin-Versuch verifiziert. Der Effekt in Bezug auf den Melanin-Gehalt von menschlichen epidermalen Melanocyten-Kulturen dieser Verbindungen wurde ermittelt und mit der Referenzverbindung (Kojicsäure) verglichen.
Eine vorausgehende Cytotoxizitäts-Studie der Verbindungen nach Formeln Ia bis IIp wurde durchgeführt um drei nicht-cytotoxische Konzentrationen für den Melanin-Versuch zu ermitteln.
Melanin-Versuch: normale menschliche Melanocyten wurden in 24 Lochplatten (110.000 Zellen/Loch) kultiviert. Bei 50 % Zusammenfluss wurde das Kulturmedium mit oder ohne (Kontrollverbindung) Verbindungen der Formeln Ia bis IIp durch frisches Kulturmedium in drei verschiedenen Konzentrationen ersetzt.
Nach der Inkubation (240 Stunden) wurden die Monolayers gewaschen, die Zellen lysiert und das Melanin extrahiert. Es wurde die optische Dichte jedes experimentellen Punktes bei 405 nm gegen den Melanin-Standard gemessen. Tabelle 2 zeigt die Ergebnisse zwei ausgewählter Verbindungen im Vergleich zur Kojicsäure und der Kontrollverbindung (mit 100% Melaningehalt), wobei der ermittelte Melaningehalt (in %) bei jeweils drei verschiedenen Konzentrationen angegeben ist. Tab. 2 Melanin-Versuchsergebnisse

As usually defined, the IC50 is the concentration that inhibits the measured activity by half.

`c1ccc(CN2CCN(Cc3ccccn3)CC2)cc1` [IIk, 1-Benzyl-4-pyridin-2-ylmethyl-piperazin] gave an IC50 against Pilz-tyrosinase of more than 1000 µM.

In turn, `c1cc(CN2CCNCC2)ccn1` [IIn, 1-Pydridin-4-ylmethyl-piperazin] returned an IC50 on Pilz-tyrosinase of 280 µM.

In turn, `c1cncc(CN2CCNCC2)c1` [IIo, 1-Pyridin-3-ylmethyl-piperazin] returned an IC50 on Pilz-tyrosinase of 360 µM.

In the case of `c1ccc(CN2CCNCC2)nc1` [IIp, 1-Pyridin-2-ylmethyl-piperazin], the IC50 against Pilz-tyrosinase turned out to be 553 µM.

Turning to `Oc1cccc(CN2CCN(Cc3ccccc3)CC2)c1O` [Ia, 3-(4-Benzyl-piperazin-1-ylmethyl)-benzen-1,2-diol], the IC50 at Pilz-tyrosinase worked out at 134 µM. In assay [1] (Konzent. 0.8 µg/mL), the Melanin stood at 38.6 µg/mL, the “Melanin normiert*” value is 36.4 µglmL, the “% Kontrolle normiert*” value stood at 98% and the “% Kontrolle” value turned out to be 104%.

For `Oc1ccc(CN2CCN(Cc3ccccc3)CC2)c(O)c1` [Ib, 4-(4-Benzyl-piperazin-1-ylmethyl)-benzen-1,3-diol], the IC50 against Pilz-tyrosinase was found to be 154 µM. In assay [1] (Konzent. 0.8 µg/mL), the Melanin came to 37.8 µg/mL, the “Melanin normiert*” value is recorded as 37.1 µglmL, the “% Kontrolle normiert*” value turned out to be 100% and the “% Kontrolle” value is 102%. Also, in assay [1] (Konzent. 4 µg/mL), the Melanin worked out at 37.1 µg/mL, the “Melanin normiert*” value came out at 34.8 µglmL, the “% Kontrolle normiert*” value was 94% and the “% Kontrolle” value is given as 100%.

In turn, `Oc1cc(O)cc(CN2CCN(Cc3ccccc3)CC2)c1` [Id, 5-(4-Benzyl-piperazin-1-ylmethyl)-benzen-1,3-diol] displayed an IC50 against Pilz-tyrosinase of more than 1000 µM.

On Pilz-tyrosinase, `CCN1CCN(Cc2ccc(O)cc2O)CC1` [Ie, 4-(4-Ethyl-piperazin-1-ylmethyl)-benzen-1,3-diol] displayed an IC50 of 263 µM. Moreover, in assay [1] (Konzent. 0.8 µg/mL), the Melanin worked out at 37.3 µg/mL, the “Melanin normiert*” value was determined as 36.5 µglmL, the “% Kontrolle normiert*” value is reported as 98% and the “% Kontrolle” value stood at 100%. Also, in assay [1] (Konzent. 4 µg/mL), the Melanin is on record as 37.5 µg/mL, the “Melanin normiert*” value worked out at 36.0 µglmL, the “% Kontrolle normiert*” value was 97% and the “% Kontrolle” value was found to be 101%. Also, in assay [1] (Konzent. 20 µg/mL), the Melanin is on record as 33.8 µg/mL, the “Melanin normiert*” value is reported as 32.9 µglmL, the “% Kontrolle normiert*” value stood at 88% and the “% Kontrolle” value stood at 91%.

In turn, `CC(C)(C)OC(=O)N1CCN(Cc2ccc(O)cc2O)CC1` [If, 4-(4-tert-Butoxycarbinyl-piperazin-1-ylmethyl)-benzen-1,3-diol] had an IC50 against Pilz-tyrosinase of 140 µM.

The compound `Oc1ccc(CN2CCOCC2)c(O)c1` [Ih, 4-Morpholin-1-ylmethyl-benzen-1,3-diol] displayed an IC50 on Pilz-tyrosinase of 78 µM. Also, in assay [1] (Konzent. 1.6 µg/mL), the Melanin worked out at 37.2 µg/mL, the “Melanin normiert*” value is 37.0 µglmL, the “% Kontrolle normiert*” value was determined as 99% and the “% Kontrolle” value was determined as 100%. In assay [1] (Konzent. 8 µg/mL), the Melanin came to 35.3 µg/mL, the “Melanin normiert*” value was 32.1 µglmL, the “% Kontrolle normiert*” value is 86% and the “% Kontrolle” value was 95%. In addition, in assay [1] (Konzent. 40 µg/mL), the Melanin is 30.6 µg/mL, the “Melanin normiert*” value amounted to 30.4 µglmL, the “% Kontrolle normiert*” value was determined as 82% and the “% Kontrolle” value amounted to 82%.

On Pilz-tyrosinase, `COc1ccc(CN2CCN(Cc3ccccc3)CC2)c(OC)c1` [Ii, 1-Benzyl-4-(2,4-dimethoxy-benzyl)-piperazin] had an IC50 of more than 1000 µM.

Consider `c1ccc(CN2CCN(Cc3ccc4c(c3)OCO4)CC2)cc1` [Ij, 1-Benzo[1,3]dioxol-5-ylmethyl-4-benzyl-piperazin], for which, on Pilz-tyrosinase, the half-maximal inhibitory concentration (IC50) was 153 µM.

The compound `O=c1cc(CO)occ1O` [Kojicsäure, reference compound] gave an IC50 on Pilz-tyrosinase of 12 µM. In assay [1] (Konzent. 6.8 µg/mL), the Melanin amounted to 34.4 µg/mL, the “Melanin normiert*” value was 38.0 µglmL, the “% Kontrolle normiert*” value is reported as 101% and the “% Kontrolle” value turned out to be 92%. In assay [1] (Konzent. 15.6 µg/mL), the Melanin is on record as 30 µg/mL, the “Melanin normiert*” value came out at 34.6 µglmL, the “% Kontrolle normiert*” value is 92% and the “% Kontrolle” value was determined as 80%. In assay [1] (Konzent. 36 µg/mL), the Melanin is 23.8 µg/mL, the “Melanin normiert*” value is 31.7 µglmL, the “% Kontrolle normiert*” value amounted to 85% and the “% Kontrolle” value is 64%.
